Experimental data published in patent US8222414B2, “Indole compounds as an inhibitor of cellular necrosis” (LG Life Sciences Ltd., priority 2007, dated 2012).
pEC50: −log10 of the molar value.

Tests used:
Assay type in all cases: cell-based
[1] = tested on: primary hepatocytes isolated from rats; experiment: Cell protective effects against doxorubicin in hepatocytes (WST-1 cell viability); settings: Hepatocyte; primary rat hepatocytes pretreated with compound for 30 min, then doxorubicin; viability by WST-1 after 24-48 h
Summary of the method: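 Rat primary hepatocytes from two-step collagenase perfusion were pretreated for 30 min with compound: 5-step 2- or 3-fold series from 30, 10 or 1 µM, 0.2% DMSO. Doxorubicin or another hepatotoxicant (e.g., CCl4, acetaminophen, H2O2) was then added. Viability after 24–48 h was read by WST-1 (A440), and EC50 was taken as half-maximal protection.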

[2] = tested on: Linm5F cells; experiment: Protective effect when tBHP was treated on pancreatic cells (SRB method); settings: Pancreatic beta cell, tBHP 400 uM, 5 h
Method: (§1) In order to determine the protective effect on pancreatic cells, Linm5F cells, a sort of the beta cells, were distributed into the 96-well plate in the amount of 2×10^4 cells/well, and incubated for 24 h. The Example compounds were serially diluted by 3-fold to the final concentration of 30, 10, 3, 1, 0.3, 0.1 uM, by which each well was treated for 1 h. Cells were treated with tBHP at the final concentration of 400 uM, and further incubated for 5 h. Protective effects were determined using SRB (Sulforhodamine B Protein) method in which total amount of cellular protein is stained. Briefly, cells were incubated for 5 h, 50 uL of 4% formaldehyde solution was added to each well to fix the cells, and stored for about 30 min at room temperature. After discarding the media, each well was washed with distilled water 2-3 times, and the plate was dried in an oven at 50°. 50 uL of SRB solution was added to each well, and placed for about 30 min at room temperature. After removing SRB solution, the plate was washed with 1% acetic acid solution 2-3 times. After drying the plate in an oven at 50°, 100 uL of 10 mM Tris was added to elute SRB which was staining the intracellular protein.

[3] = tested on: H9C2 cells; experiment: Protective effect when tBHP was treated on cardiac cells (SRB method); settings: Rattus norvegicus, tBHP 400 uM, 2 h, H9C2 cardiomyocytes
Method: as §1, with “After drying the plate in an oven at 50°, 100 uL of 10 mM Tris was added to elute SRB which was staining the intracellular protein.” left out
In order to assess the protective effect on cardiac cells, H9C2 cells were distributed in the amount of 1.5×10^4 cells/well, and incubated for 24 h. […] Protective effect of each compound was determined using the same SRB method as in Linm5F of above mentioned 2).

[4] = tested on: SK-N-MC cells; experiment: Protective effect when tBHP was treated on brain cells (LDH assay); settings: Homo sapiens, tBHP 400 uM, 6 h
Method: In order to assess the protective effect on brain cells, 2×10^4 brain cells were distributed into the 96-well plate using DMEM media (Gibco, 10% FBS), and incubated for 24 h. The Example compounds were serially diluted by 3-fold to the final concentration of 30, 10, 3, 1, 0.3, 0.1 uM, by which each well was treated for 1 h. Cells were treated with tBHP at the final concentration of 400 uM, and incubated for 6 h. 50 uL of media was taken from each well to proceed with LDH assay (Promega). In LDH assay, 50 uL of media was mixed with 50 uL of assay solution. After the reaction for 30 min at room temperature, absorbance was measured at 490 nm using SpectraMax (Molecular Device).

[5] = tested on: primary hepatocytes isolated from rats; experiment: Hepatocyte protective effect against substances deriving hepatocyte toxicity (WST-1 cell viability); settings: for pEC50: Rattus norvegicus, Hepatocyte, viability after 24-48 h, WST-1; for viability: primary rat hepatocytes
Method: Various endogenous/exogenous attacks on the cells trigger the mechanisms of cell death which is broadly classified into two types, i.e. apoptosis or necrosis. Using these cell death mechanisms, in the present experimental example, primacy hepatocytes isolated from rats were treated with drugs which were clinically shown to result in serious side-effects of hepatocyte toxicity or various chemicals which derive cell death, and the compounds synthesized in the Examples were estimated for their hepatocyte protective effects, after 24-48 h. The substances used to derive hepatocyte death include CCl4, ActD, H2O2, doxorubicin, anti-Fas Ab/Actinomycin D, acetaminophen, EtOH, CdCl2, palmitate, stearate, cyclophosphamide, terfenadine, diclofenac, simvastatin, and adefovir. Primary hepatocytes were isolated using the method of Seglen P O (Experimental Cell Research 74 (1972) pp 450-454). Briefly, hepatocytes were isolated according to the two-step collagenase perfusion method, and dead cells were removed by low speed (500 rpm) centrifugation for 10 min using percoll gradient (Kreamer B L etc, In Vitro Cellular & Developmental Biology 22 (1986) pp 201-211). During this step, the viability of cells was maintained 90% or above. The cells were suspended in HepatoZYME media (Gibco BRL), and the number of cells was counted. 1.5×10^4 cells in 100 μl were placed into the collagen-coated 96-well plate (BD biocoat), and adhered on the bottom for 3-4 h.
In order to assess the hepatocyte protective effect, above adhered cells were pretreated with the Example compounds for 30 min. […] 30 min after the treatment by compounds, cells were treated by the substances deriving hepatocyte death or hepatotoxic drugs at the concentrations indicated in Table 1. After 24-48 h, the viability of cells was determined to estimate the hepatocyte protective effects. The viability of cells was determined using WST-1 (MK-400, […]) method by the absorbance at 440 nm. Hepatocyte protective effects of the Example compounds were represented by “EC50” which was calculated from measured values. “EC50” herein means the concentration of the compound at which 50% of maximum protective effect is observed in the experiment.

Row | SMILES | pEC50 [1] | pEC50 [2] | pEC50 [3] | further results
1 | O=C(O)C[C@H]1CSC(c2cc3cccc(NC4CCCC4)c3[nH]2)=N1 [Example 14, [(S)-2-(7-cyclopentylamino-1H-indol-2-yl)-4,5-dihydro-thiazol-4-yl]-acetic acid] | 6.72 | 6.82 |  | 
2 | Cc1cc(NCC2CCOCC2)c2[nH]c(C3=N[C@@H](CC(=O)O)CS3)cc2c1 [Example 22, [(S)-2-(5-methyl-7-(tetrahydropyran-4-yl)methylamino-1H-indol-2-yl)-4,5-dihydro-thiazol-4-yl]-acetic acid] | 6.60 | 6.70 | 6.77 | 
3 | O=C(O)C[C@@H]1CSC(c2cc3cc(Cl)cc(NC4CCCC4)c3[nH]2)=N1 [Example 4, [(R)-2-(5-chloro-7-cyclopentylamino-1H-indol-2-yl)-4,5-dihydro-thiazol-4-yl]-acetic acid] | 6.52 |  |  | pEC50 [4]: ≥ 7.00; pEC50 ([5]; simvastatin 16 μM): > 5.00; pEC50 ([5]; terfenadine 10 μM): 6.40; viability ([5]; adefovir 100 μM, compound at 3-30 uM): 50%; viability ([5]; diclofenac 350 μM, compound at 3-100 uM): 40%
4 | O=C(O)C[C@@H]1CSC(c2cc3cc(Oc4ccccc4)cc(NC4CCCC4)c3[nH]2)=N1 [Example 85, [(R)-2-(5-phenoxy-7-cyclopentylamino-1H-indol-2-yl)-4,5-dihydro-thiazol-4-yl]-acetic acid] | 6.40 |  | 6.15 | 
5 | O=C(O)C[C@H]1COC(c2cc3cc(Cl)cc(NCC4CCOCC4)c3[nH]2)=N1 [Example 122, [(S)-2-(5-chloro-7-(tetrahydropyran-4-yl)methylamino-1H-indol-2-yl)-4,5-dihydro-oxazol-4-yl]-acetic acid] | 6.02 |  |  | 
6 | CC1SC(c2cc3cccc(NCC4CCOCC4)c3[nH]2)=N[C@H]1C(O)C1CCCN1 (stereo partly drawn) [Example 241, (5-Methyl-[(S)-2-(7-(tetrahydropyran-4-yl)methylamino-1H-indol-2-yl)-4,5-dihydro-thiazol-4-yl])-pyrrolidin-2-yl-methanol] | 6.68 |  |  | 
